In paper PMC11290853, “Cholesterol-dependent dynamic changes in the conformation of the type 1 cholecystokinin receptor affect ligand binding and G protein coupling” (PLOS Biology, 2024):
Numbering of substitutions follows the chain as printed.

Assays:
CCK1R(Y140A) [1] = experiment: photoaffinity labeling, CCK1R(Y140A); format: binding, human; settings: CNBr cleavage, 10% NuPAGE gel
Method: (§1) After incubation, contents were transferred to a siliconized glass tube and exposed to UV irradiation for 30 min at 4°C with 3,500-Å lamps in a Rayonet photochemical reactor (Southern New England Ultraviolet, Hamden, Connecticut). After photolysis, membrane suspensions were centrifuged at 25,000×g for 5 min and washed twice with ice-cold medium and then resuspended in 30 μl of SDS sample buffer prior to separation on 10% SDS-polyacrylamide gels. Gels were dried and radiolabeled bands were visualized by autoradiography. The apparent molecular weight of radiolabeled receptor fragments was determined from the mobility of Prosieve color protein standards (Cambrex, Rockland, Maine). Receptor radiolabeled bands were excised from the polyacrylamide gel, eluted, and lyophilized, then precipitated with ethanol. Radiochemically pure receptor suspension was cleaved with 2.5 mg of CNBr in 70% formic acid, as described previously. The cleaved receptor products were washed, dried, and resolve in 10% NuPAGE gel with MES running buffer (Invitrogen, Carlsbad, California). The labeled products were identified by autoradiography.

CCK1R(sterol 7M) [2] = experiment: photoaffinity labeling, CCK1R(sterol 7M); format: binding, human; settings: CNBr cleavage, 10% NuPAGE gel
Method: as §1

WT CCK1R = settings: large glycosylated CNBr fragment; ref [28],[31]; cited from earlier work
CCK2R = settings: CNBr fragment; ref [28]; cited from earlier work
CCK1R(Y140A) [3] = target: T1, CCK1R(Y140A) (Homo sapiens, UniProt P32238, Y140A); experiment: fluorescence polarization kinetic assay, CCK1R(Y140A); format: binding
T1 construct: expressed in transfected cells; some KO cells re-transfected with Galphaq or Galpha11), receptor-enriched membranes
T1 sequence (P32238 1-428 Y140A): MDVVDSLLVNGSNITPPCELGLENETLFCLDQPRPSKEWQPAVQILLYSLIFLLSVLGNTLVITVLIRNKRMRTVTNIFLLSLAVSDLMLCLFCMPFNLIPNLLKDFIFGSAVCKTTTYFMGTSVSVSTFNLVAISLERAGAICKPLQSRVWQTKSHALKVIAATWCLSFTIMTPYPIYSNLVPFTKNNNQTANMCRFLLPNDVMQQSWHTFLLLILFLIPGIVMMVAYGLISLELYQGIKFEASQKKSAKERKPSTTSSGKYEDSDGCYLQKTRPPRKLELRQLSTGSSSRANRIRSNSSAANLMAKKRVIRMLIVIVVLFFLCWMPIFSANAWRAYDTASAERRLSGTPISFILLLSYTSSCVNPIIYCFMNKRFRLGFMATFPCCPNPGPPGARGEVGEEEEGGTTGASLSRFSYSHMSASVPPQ
Method: (§2) Cells were grown either in Ham-F12 medium supplemented with 5% Fetal Clone II or DMEM supplemented with 10% Fetal Clone II with 1% penicillin-streptomycin, 4 mM glutamine mixture in a humidified atmosphere containing 5% CO2 at 37°C.
(§3) This was done in the absence or presence of the non-hydrolyzable GTP analogue, GppNHp, at 10 μM concentration.

CCK1R(sterol 7M) [4] = target: T2, CCK1R(sterol 7M) (Homo sapiens, UniProt P32238, F130L/G141S/I216L/I223V/L219F/M226A/S136A); experiment: fluorescence polarization kinetic assay, CCK1R(sterol 7M); format: binding
T2 construct: expressed in transfected cells
T2 sequence (P32238 1-428 F130L/S136A/G141S/I216L/L219F/I223V/M226A): T1 sequence (P32238 1-428 Y140A) with F130L, S136A, A140Y, G141S, I216L, L219F, I223V, M226A
Method: as §2, §3

CCK2R WT = target: T3, CCK2R WT (Homo sapiens, UniProt P32239); experiment: fluorescence polarization kinetic assay, CCK2R WT; format: binding
T3 construct: expressed in transfected cells; some KO cells re-transfected with Galphaq or Galpha11), receptor-enriched membranes
T3 sequence (P32239 1-447): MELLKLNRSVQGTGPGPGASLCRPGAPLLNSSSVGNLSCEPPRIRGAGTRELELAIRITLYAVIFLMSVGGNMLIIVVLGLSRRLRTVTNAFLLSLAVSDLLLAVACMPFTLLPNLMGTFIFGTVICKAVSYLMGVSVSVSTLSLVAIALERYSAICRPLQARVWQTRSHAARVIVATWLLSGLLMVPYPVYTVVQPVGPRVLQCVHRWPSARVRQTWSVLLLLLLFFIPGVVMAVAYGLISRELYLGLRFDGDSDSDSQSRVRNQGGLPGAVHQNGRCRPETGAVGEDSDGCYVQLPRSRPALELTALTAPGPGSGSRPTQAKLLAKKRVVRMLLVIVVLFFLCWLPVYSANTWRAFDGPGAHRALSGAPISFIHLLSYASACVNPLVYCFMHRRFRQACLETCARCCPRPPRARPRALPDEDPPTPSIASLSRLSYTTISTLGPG
Method: as §2, §3

CCK2R(sterol 7M) = target: T4, CCK2R(sterol 7M) (Homo sapiens, UniProt P32239, A149S/A235M/F228L/L143F/L225I/S154G/V232I); experiment: fluorescence polarization kinetic assay, CCK2R(sterol 7M); format: binding; settings: vs CCK2R
T4 construct: expressed in transfected cells
T4 sequence (P32239 1-447 L143F/A149S/S154G/L225I/F228L/V232I/A235M): T3 sequence (P32239 1-447) with L143F, A149S, S154G, L225I, F228L, V232I, A235M
Method: as §2, §3

SRD15-CCK1R cells = target: T5, SRD15-CCK1R cells (Homo sapiens, UniProt P32238); experiment: fluorescence polarization kinetic assay, SRD15-CCK1R cells; format: binding; settings: vs WT CCK1R
T5 construct: expressed in transfected cells; host or cells: SRD15 cells (genetically modified CHO cells with elevated membrane cholesterol)
T5 sequence (P32238 1-428): T1 sequence (P32238 1-428 Y140A) with A140Y
Method: as §2, §3

Molecule: (^125I-des-amino-Tyr)-Gly-[(Nle^28,31)CCK(26–32)]-Bpa^33
- photoaffinity labeling pattern (CCK1R(Y140A) [1]): labeling of a much smaller and non-glycosylated fragment of the receptor
- photoaffinity labeling pattern (CCK1R(sterol 7M) [2]): the same as previously demonstrated for WT CCK1R
- site of covalent labeling (WT CCK1R): Trp39
- site of covalent labeling (CCK2R): Thr119

Molecule: CCCC[C@H](NC(=O)[C@H](Cc1ccc(OS(=O)(=O)O)cc1)NC(=O)[C@H](CC(=O)O)NC(=O)CNC(=O)c1ccc(-c2c3ccc(=N)c(S(=O)(=O)O)c-3oc3c(S(=O)(=O)O)c(N)ccc23)c(C(=O)O)c1)C(=O)NCC(=O)N[C@@H](Cc1c[nH]c2ccccc12)C(=O)N[C@@H](CCCC)C(=O)N[C@@H](CC(=O)O)C(=O)N[C@@H](Cc1ccccc1)C(N)=O [alexa^488-Gly-[(Nle^28,31)CCK-26-33]]
- off rate, Gq or G11 transfected (CCK1R(Y140A) [3]; Gq/11 KO cells): transfection of Gq, but not G11, reversed the higher off rate
- rate of CCK dissociation (off rate) (CCK1R(Y140A) [3]; vs WT CCK1R): significantly slower
- kinetics in Gq/11 KO cells (CCK1R(sterol 7M) [4]; absence of Gq/11 proteins): not altered by absence of Gq/11 proteins
- off rate (CCK1R(sterol 7M) [4]; vs CCK1R and CCK1R(Y140A)): intermediate between that of CCK1R and CCK1R(Y140A)
- ligand dissociation rate, Gq or G11 reintroduced (CCK2R WT; Gq/11 KO cells): reintroduction of either Gq or G11 reversed the increased ligand dissociation rate
- rate of CCK dissociation (off rate) (CCK2R WT; vs WT CCK1R): slower at WT CCK2R relative to WT CCK1R
- ligand dissociation (CCK2R(sterol 7M)): significantly faster ligand dissociation than CCK2R
- rate of CCK dissociation (off rate) (SRD15-CCK1R cells): significantly slower
